Data published in article PMC10002984, “Dual PTP1B/TC-PTP Inhibitors: Biological Evaluation of 3-(Hydroxymethyl)cinnoline-4(1H)-Ones” (International Journal of Molecular Sciences, 2023).

Experiments:
[1] = system: insulin receptor gene (InsR); test: Gene expression in the liver of obese rats (qPCR), insulin receptor gene; assay type: in vivo, rat; conditions: five-day treatment, difference with Ob group not significant
Protocol: (§1) Further, six groups were formed: control (Con, n = 10), obesity (Ob, n = 10), obese rats with five-day treatment with compounds 1 (Ob + 1, n = 5), 2 (Ob + 2, n = 5), 3 (Ob + 3, n = 10), and 4 (Ob + 4, n = 10). All compounds were administered in DMSO (300 µL) at a daily dose of 7 mg/kg (1 and 2), 8 mg/kg (3), and 10 mg/kg (4) (i.p.), based on the results of the preliminary experiments. The used doses of compounds 1–4, in terms of the number of moles of each compound per kg of animal body weight, were equivalent. Control and obese rats received DMSO in the same volumes (300 µL), instead of the tested compounds. During the five days of the experiment, all animals were transferred to standard food and had free access to food and drinking water. […]
(§2) The total RNA was isolated from the liver samples of rats using the “ExtractRNA Reagent” (Evrogen, Moscow, Russia), and the samples containing 1 μg of RNA were transcribed to cDNA using the random oligodeoxynucleotide primers and the “MMLV RT kit” (Evrogen, Russia). […] The amplified signals were detected using the “Applied Biosystems® 7500 Real-Time PCR System” (Life Technologies, Carlsbad, CA, USA, Thermo Fisher Scientific Inc., USA). […] The obtained data were calculated with the delta–delta Ct method and expressed as a fold expression, relative to the corresponding control. […]

[2] = system: leptin receptor gene (LepR); test: Gene expression in the liver of obese rats (qPCR), leptin receptor gene; assay type: in vivo, rat; conditions: five-day treatment, difference with Ob group not significant
Protocol: as §1, §2

[3] = biological target: T1, human recombinant TC-PTP protein (Homo sapiens, UniProt P17706); test: Phosphatase activity assay with DiFMUP, TC-PTP inhibition; assay type: biochemical; conditions: DiFMUP 35 µM, 80 ng/mL TC-PTP, compounds 0.1–80 μM; M ± SEM (n = 24); read-out: IC50 for the inhibitory effect on TC-PTP activity
T1 construct: purchased Sigma-Aldrich SRP0218
T1 sequence (P17706 1-415): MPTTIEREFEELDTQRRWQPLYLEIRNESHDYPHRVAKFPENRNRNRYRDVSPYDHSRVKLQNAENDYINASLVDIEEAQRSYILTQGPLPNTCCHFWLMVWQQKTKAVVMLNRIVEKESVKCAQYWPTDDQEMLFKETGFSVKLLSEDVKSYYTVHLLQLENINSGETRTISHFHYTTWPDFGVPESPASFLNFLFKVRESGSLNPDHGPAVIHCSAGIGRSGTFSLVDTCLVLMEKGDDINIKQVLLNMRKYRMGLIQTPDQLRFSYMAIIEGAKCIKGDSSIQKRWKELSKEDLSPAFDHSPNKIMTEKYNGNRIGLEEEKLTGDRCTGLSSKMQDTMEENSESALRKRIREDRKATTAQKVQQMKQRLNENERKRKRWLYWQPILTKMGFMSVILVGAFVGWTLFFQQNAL
Protocol: The measurement of the activity of the phosphatases PTP1B and TC-PTP and their inhibition was carried out using 6,8-difluoro-4methylumbelliferyl phosphate (DiFMUP), as previously described. The stock solution of recombinant human PTP1B protein (#ab51277, Abcam, Cambridge, UK), at a concentration of 1 µg/µL, was prepared in 25 mM Tris–HCl (pH 7.5), 20% glycerol, 2 mM β-mercaptoethanol, 1 mm EDTA, and 1 mM DTT, and stored at −20 °C. Active human recombinant TC-PTP protein was purchased from Sigma-Aldrich (#SRP0218, Saint Louis, MO, USA) as the aqueous buffer solution at a concentration of 2.9 mg/mL, and aliquots were stored at −80 °C. The fluorogenic substrate DiFMUP (#D6567, Molecular Probes, Thermo Fisher Scientific, Waltham, MA, USA) was dissolved at a concentration of 10 mM in N,N-dimethylformamide and stored in aliquots at −20 °C. The 6,8-difluoro-7-hydroxy-4-methylcoumarin (DiFMU, #D6566, Molecular Probes, Thermo Fisher Scientific, Waltham, MA, USA) was used as a reference fluorescent standard. For the IC50 determination, the assay was carried out in black flat bottom 96-well plates using a reaction volume of 100 µL. The phosphatases (PTP1B or TC-PTP) were preincubated with the tested compounds (0.1–80 µM) in 50 mM HEPES (pH 6.9), 100 mM NaCl, 1 mM EDTA, 2 mM DTT, 0.1 mg/mL BSA for 5 min at 37 °C. The following concentrations of the compounds were studied: 0.1, 0.2, 0.5, 1, 2, 5, 10, 20, 40, and 80 μM. The reactions were initiated by the addition of the fluorogenic substrate DiFMUP and diluted in the assay buffer. Progress curves for hydrolysis reaction were obtained with 25 µM of DiFMUP for 80 ng/mL PTP1B, and 35 µM of DiFMUP for 80 ng/mL TC-PTP. Fluorescence excitation of hydrolyzed DiFMUP and the fluorescent standard DiFMU was monitored at 355 nm and emission was detected at 460 nm for 6–10 min at 30 s intervals in a Fluoroskan Ascent FL microplate reader (Thermo Electron Corporation, Vantaa, Finland). Initial velocities of the reactions were used to calculate the IC50 values using GraphPad Prism.
The data on food intake, body weight, and biochemical parameters in rats, as well as the PCR data, were analyzed using the IBM SPSS Statistics 22 software (“IBM”, Armonk, NY, USA), and the results are presented as mean ± standard error of the mean (M ± SEM). All differences are considered significant at p < 0.05. The calculation of the IC50 values of the studied inhibitors for the initial velocities of enzymatic reactions (PTP1B, TC-PTP) was carried out using the nonlinear regression analysis with GraphPad Prism 8 (“GraphPad Software, Inc.”, Boston, MA, USA). The statistical analysis was carried out using the Wilcoxon test for pairwise comparison and Dunn’s test for multiple comparisons.

Row | Structure (SMILES) | expression of the gene encoding the insulin receptor in the liver [1] | expression of the gene encoding the leptin receptor in the liver [2] | IC50 [3]
1 | O=c1c(CO)n[nH]c2ccc(Br)cc12 [Compound 4, 6-Bromo-3-(hydroxymethyl)cinnolin-4(1H)-one] | slight decrease | slight decrease | 26.5 ± 4.66 µM
2 | O=c1c(CO)n[nH]c2ccccc12 [Compound 1] |  |  | 18.9 ± 2.06 µM
3 | O=c1c(CO)n[nH]c2ccc(Cl)cc12 [Compound 3, 6-Chloro-3-(hydroxymethyl)cinnolin-4(1H)-one] | slight decrease | slight decrease | 2.98 ± 0.76 µM
